Test results from patent publication US7192906B2, “Substituted pyrazole derivatives, production process thereof, and herbicide compositions containing the derivatives” (SDS Biotech K.K., priority 2001, dated 2007).

system: Monochoria vaginalis; assay: Test Example 3 paddy field treatment; type: in vivo; settings: Table 6, paddy field treatment, active ingredient 1 kg per hectare, 21st day after dropping, index 0-5
Protocol: (§1) A plastic pot of 130 cm^2 was filled with paddy soil, and soil puddling was carried out to adjust the submerged depth to 4 cm. Subsequently, seeds of Echinochloa crusgalli, Monochoria vaginalis, Ammannia multiflora and Scirpus juncoides were sowed, and rice (Oryza sative, variety: Koshihikari) of two-leaf period was transplanted by 2 rice plants of 1 stub per pot at a depth of 3 cm. On the 10th day after the transplantation, the wettable powder prepared in Formulation Example 1 was diluted with water such that the amount of the active ingredient became 1 kg per hectare, and then dropped to diffuse on the water surface. On the 21st day after the dropping, observation and evaluation were carried out according to the aforesaid criteria.
(§2) Herbicidal activity was evaluated based on the following criteria.
(§3) • 5: herbicidal effect of not less than 90%, or phytotoxicity of 90% or more • 4: herbicidal effect of not less than 70% and less than 90%, or phytotoxicity of 70% or more and less than 90% • 3: herbicidal effect of not less than 50% and less than 70%, or phytotoxicity of 50% or more and less than 70% • 2: herbicidal effect of not less than 30% and less than 50%, or phytotoxicity of 30% or more and less than 50% • 1: herbicidal effect of not less than 10% and less than 30%, or phytotoxicity of 10% or more and less than 30% • 0: herbicidal effect of not less than 0% and less than 10%, or phytotoxicity of 0% or more and less than 10%

| SMILES | Herbicidal activity MV |
| --- | --- |
| CNC(=O)C(Cn1cc(C)c(-c2c(F)cccc2F)n1)=NOC [Compound 58, 2-methoxyimino-3-((2′,6′-difluorophenyl)-4-methyl-pyrazole)-1-yl-propanoic acid-N-methylamide] | 5 (herbicidal effect of not less than 90%, or phytotoxicity of 90% or more) |
| CNC(=O)C(Cn1cc(C)c(-c2cc(F)cc(F)c2)n1)=NOC [Compound 60] | 5 (herbicidal effect of not less than 90%, or phytotoxicity of 90% or more) |
| CNC(=O)C(Cn1cc(C)c(-c2cc(Cl)ccc2Cl)n1)=NOC [Compound 73] | 5 (herbicidal effect of not less than 90%, or phytotoxicity of 90% or more) |
| CNC(=O)C(Cn1cc(C)c(-c2ccc(OC)c(F)c2)n1)=NOC [Compound 76] | 5 (herbicidal effect of not less than 90%, or phytotoxicity of 90% or more) |
| CNC(=O)C(Cn1cc(C)c(-c2ccc(C(F)(F)F)c(F)c2)n1)=NOC [Compound 87] | 5 (herbicidal effect of not less than 90%, or phytotoxicity of 90% or more) |

system: Ammannia multiflora; assay: Test Example 3 paddy field treatment; type: in vivo; settings: Table 6, paddy field treatment, active ingredient 1 kg per hectare, 21st day after dropping, index 0-5
Protocol: as §1, §2, §3

| SMILES | Herbicidal activity AM |
| --- | --- |
| CNC(=O)C(Cn1cc(C)c(-c2c(F)cccc2F)n1)=NOC [Compound 58, 2-methoxyimino-3-((2′,6′-difluorophenyl)-4-methyl-pyrazole)-1-yl-propanoic acid-N-methylamide] | 5 (herbicidal effect of not less than 90%, or phytotoxicity of 90% or more) |
| CNC(=O)C(Cn1cc(C)c(-c2cc(F)cc(F)c2)n1)=NOC [Compound 60] | 5 (herbicidal effect of not less than 90%, or phytotoxicity of 90% or more) |
| CNC(=O)C(Cn1cc(C)c(-c2cc(Cl)ccc2Cl)n1)=NOC [Compound 73] | 4 (herbicidal effect of not less than 70% and less than 90%, or phytotoxicity of 70% or more and less than 90%) |
| CNC(=O)C(Cn1cc(C)c(-c2ccc(OC)c(F)c2)n1)=NOC [Compound 76] | 5 (herbicidal effect of not less than 90%, or phytotoxicity of 90% or more) |
| CNC(=O)C(Cn1cc(C)c(-c2ccc(C(F)(F)F)c(F)c2)n1)=NOC [Compound 87] | 5 (herbicidal effect of not less than 90%, or phytotoxicity of 90% or more) |

system: Scirpus juncoides; assay: Test Example 3 paddy field treatment; type: in vivo; settings: Table 6, paddy field treatment, active ingredient 1 kg per hectare, 21st day after dropping, index 0-5
Protocol: as §1, §2, §3

| SMILES | Herbicidal activity SJ |
| --- | --- |
| CNC(=O)C(Cn1cc(C)c(-c2c(F)cccc2F)n1)=NOC [Compound 58, 2-methoxyimino-3-((2′,6′-difluorophenyl)-4-methyl-pyrazole)-1-yl-propanoic acid-N-methylamide] | 5 (herbicidal effect of not less than 90%, or phytotoxicity of 90% or more) |
| CNC(=O)C(Cn1cc(C)c(-c2cc(F)cc(F)c2)n1)=NOC [Compound 60] | 5 (herbicidal effect of not less than 90%, or phytotoxicity of 90% or more) |
| CNC(=O)C(Cn1cc(C)c(-c2cc(Cl)ccc2Cl)n1)=NOC [Compound 73] | 4 (herbicidal effect of not less than 70% and less than 90%, or phytotoxicity of 70% or more and less than 90%) |
| CNC(=O)C(Cn1cc(C)c(-c2ccc(OC)c(F)c2)n1)=NOC [Compound 76] | 5 (herbicidal effect of not less than 90%, or phytotoxicity of 90% or more) |
| CNC(=O)C(Cn1cc(C)c(-c2ccc(C(F)(F)F)c(F)c2)n1)=NOC [Compound 87] | 5 (herbicidal effect of not less than 90%, or phytotoxicity of 90% or more) |

system: Echinochloa crusgalli; assay: Test Example 3 paddy field treatment; type: in vivo; settings: Table 6, paddy field treatment, active ingredient 1 kg per hectare, 21st day after dropping, index 0-5
Protocol: as §1, §2, §3

| SMILES | Herbicidal activity EC |
| --- | --- |
| CNC(=O)C(Cn1cc(C)c(-c2c(F)cccc2F)n1)=NOC [Compound 58, 2-methoxyimino-3-((2′,6′-difluorophenyl)-4-methyl-pyrazole)-1-yl-propanoic acid-N-methylamide] | 5 (herbicidal effect of not less than 90%, or phytotoxicity of 90% or more) |
| CNC(=O)C(Cn1cc(C)c(-c2cc(F)cc(F)c2)n1)=NOC [Compound 60] | 5 (herbicidal effect of not less than 90%, or phytotoxicity of 90% or more) |
| CNC(=O)C(Cn1cc(C)c(-c2cc(Cl)ccc2Cl)n1)=NOC [Compound 73] | 5 (herbicidal effect of not less than 90%, or phytotoxicity of 90% or more) |
| CNC(=O)C(Cn1cc(C)c(-c2ccc(OC)c(F)c2)n1)=NOC [Compound 76] | 5 (herbicidal effect of not less than 90%, or phytotoxicity of 90% or more) |
| CNC(=O)C(Cn1cc(C)c(-c2ccc(C(F)(F)F)c(F)c2)n1)=NOC [Compound 87] | 5 (herbicidal effect of not less than 90%, or phytotoxicity of 90% or more) |

system: Rice (Oryza sativa); assay: Test Example 3 paddy field treatment, crop phytotoxicity; type: in vivo; settings: Table 6, paddy field treatment, transplanted rice, active ingredient 1 kg per hectare, 21st day after dropping, index 0-5
Protocol: as §1, §2, §3

| SMILES | Herbicidal activity (phytotoxicity) OS |
| --- | --- |
| CNC(=O)C(Cn1cc(C)c(-c2c(F)cccc2F)n1)=NOC [Compound 58, 2-methoxyimino-3-((2′,6′-difluorophenyl)-4-methyl-pyrazole)-1-yl-propanoic acid-N-methylamide] | 1 (herbicidal effect of not less than 10% and less than 30%, or phytotoxicity of 10% or more and less than 30%) |
| CNC(=O)C(Cn1cc(C)c(-c2cc(F)cc(F)c2)n1)=NOC [Compound 60] | 0 (herbicidal effect of not less than 0% and less than 10%, or phytotoxicity of 0% or more and less than 10%) |
| CNC(=O)C(Cn1cc(C)c(-c2cc(Cl)ccc2Cl)n1)=NOC [Compound 73] | 0 (herbicidal effect of not less than 0% and less than 10%, or phytotoxicity of 0% or more and less than 10%) |
| CNC(=O)C(Cn1cc(C)c(-c2ccc(OC)c(F)c2)n1)=NOC [Compound 76] | 0 (herbicidal effect of not less than 0% and less than 10%, or phytotoxicity of 0% or more and less than 10%) |
| CNC(=O)C(Cn1cc(C)c(-c2ccc(C(F)(F)F)c(F)c2)n1)=NOC [Compound 87] | 0 (herbicidal effect of not less than 0% and less than 10%, or phytotoxicity of 0% or more and less than 10%) |
